We go through 24 molecules from patent publication US10913727B2, “Modulators of the integrated stress pathway” (Calico Life Sciences LLC, priority 2016, dated 2021).

This test deals with HEK293T cells carrying the ATF4 luciferase reporter. As to the kind of experiment: ATF4-Luc assay, in vitro model of Vanishing Cell White Matter Disease (VWMD). Particulars: Homo sapiens, HEK-293T, 1 μg/mL tunicamycin, 7 hours, One Glo luminescence. It counts as cell-based. The gist of the method:
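Reporter cells were stably generated by retroviral transduction and puromycin selection, then seeded at 30,000 cells/well. Next day, cells received 1 μg/mL tunicamycin with 200 nM test compound for 7 h, and luciferase luminescence was read with a one-step reagent. Values reported as EC50.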
The term EC50 denotes the concentration needed to bring the measured effect to its halfway point. In the case of `O=C(COc1ccc(Cl)c(F)c1)NC12CC(NC(=O)c3cccc[n+]3[O-])(C1)C2` [Compound 403, N-{3-[2-(4-chloro-3-fluorophenoxy)acetamido]bicyclo[1.1.1]pentan-1-yl}-1-oxo-1λ^5-pyridine-2-carboxamide], the EC50 was above 2000 nM.

Turning to `Cc1oncc1C(=O)NC12CCC(NC(=O)COc3ccc(Cl)c(F)c3)(CC1)C(O)C2` (stereo not drawn) [Compound 604, N-{4-[2-(4-chloro-3-fluorophenoxy)acetamido]-3-hydroxybicyclo[2.2.2]octan-1-yl}-5-methyl-1,2-oxazole-4-carboxamide], the EC50 was above 2000 nM.

`Cc1ncsc1C(=O)NC12CC(NC(=O)COc3ccc(Cl)c(F)c3)(C1)C2` [Compound 558, N-{3-[2-(4-chloro-3-fluorophenoxy)acetamido]bicyclo[1.1.1]pentan-1-yl}-4-methyl-1,3-thiazole-5-carboxamide]: the EC50 was 1000 to 2000 nM.

Turning to `O=C(COc1ccc(Cl)c(Cl)c1)NC12CC(NC(=O)c3ccccc3)(C1)C2` [Compound 521, N-{3-[2-(3,4-dichlorophenoxy)acetamido]bicyclo[1.1.1]pentan-1-yl}benzamide], the EC50 lay within 50 to 250 nM.

On to `Cn1nc(C(C)(C)C)cc1C(=O)NC12CC(NC(=O)COc3ccc(Cl)c(F)c3)(C1)C2` [Compound 338, 3-tert-butyl-N-{3-[2-(4-chloro-3-fluorophenoxy)acetamido]bicyclo[1.1.1]pentan-1-yl}-1-methyl-1H-pyrazole-5-carboxamide], for which the EC50 was in the range of 50 to 250 nM.

On to `Cc1ccc(C(=O)NC23CCC(NC(=O)COc4ccc(Cl)c(F)c4)(CC2)C[C@@H]3O)nc1` [Compound 589, N-{(2S)-4-[2-(4-chloro-3-fluorophenoxy)acetamido]-2-hydroxybicyclo[2.2.2]octan-1-yl}-5-methylpyridine-2-carboxamide], for which the EC50 was in the range of 50 to 250 nM.

`O=C(COc1ccc(Cl)c(F)c1)NC12CC(NC(=O)c3cc(N4CCOCC4)ccn3)(C1)C2` [Compound 180, N-{3-[2-(4-chloro-3-fluorophenoxy)acetamido]bicyclo[1.1.1]pentan-1-yl}-4-(morpholin-4-yl)pyridine-2-carboxamide]: the EC50 lay within 1000 to 2000 nM.

With `O=C(COc1ccc(Cl)c(Cl)c1)NC12CC(NC(=O)c3ccnc(CO)c3)(C1)C2` [Compound 715, N-{3-[2-(3,4-dichlorophenoxy)acetamido]bicyclo[1.1.1]pentan-1-yl}-2-(hydroxymethyl)pyridine-4-carboxamide], the EC50 was in the range of 1000 to 2000 nM.

Take `O=C(COc1ccc(Cl)c(F)c1)NC12CC(Nc3ccc(C(F)(F)F)nc3)(C1)C2` [Compound 104, 2-(4-chloro-3-fluorophenoxy)-N-(3-{[6-(trifluoromethyl)pyridin-3-yl]amino}bicyclo[1.1.1]pentan-1-yl)acetamide]: the EC50 is 250 to 1000 nM.

As for `Cc1nc(C(=O)NC23CCC(NC(=O)COc4ccc(Cl)c(F)c4)(CC2)C(O)C3)ccc1F` (stereo not drawn) [Compound 917, N-{4-[2-(4-chloro-3-fluorophenoxy)acetamido]-3-hydroxybicyclo[2.2.2]octan-1-yl}-5-fluoro-6-methylpyridine-2-carboxamide], the half-maximal effective concentration (EC50) was 50 to 250 nM.

In the case of `Cc1cnc(C(=O)NC23CCC(NC(=O)COc4ccc(Cl)c(F)c4)(CC2)C(O)C3)c(C)n1` (stereo not drawn) [Compound 286, N-{4-[2-(4-chloro-3-fluorophenoxy)acetamido]-3-hydroxybicyclo[2.2.2]octan-1-yl}-3,5-dimethylpyrazine-2-carboxamide], the EC50 lay in the range of 250 to 1000 nM.

With `Cc1cnc(C(=O)NC23CCC(NC(=O)COc4ccc(Cl)c(F)c4)(CC2)C[C@@H]3O)cn1` [Compound 733, N-{(2S)-4-[2-(4-chloro-3-fluorophenoxy)acetamido]-2-hydroxybicyclo[2.2.2]octan-1-yl}-5-methylpyrazine-2-carboxamide], the EC50 was above 2000 nM.

For the molecule `Cc1cc(C(=O)NC23CCC(NC(=O)COc4ccc(Cl)c(F)c4)(CC2)C(O)C3)oc1C` (stereo not drawn) [Compound 474, N-{4-[2-(4-chloro-3-fluorophenoxy)acetamido]-3-hydroxybicyclo[2.2.2]octan-1-yl}-4,5-dimethylfuran-2-carboxamide], the EC50 lay in the range of 50 to 250 nM.

On to `O=C(COc1ccc(Cl)c(Cl)c1)NC12CC(NC(=O)c3cnc(C(F)F)cn3)(C1)C2` [Compound 201, N-{3-[2-(3,4-dichlorophenoxy)acetamido]bicyclo[1.1.1]pentan-1-yl}-5-(difluoromethyl)pyrazine-2-carboxamide], for which the EC50 was below 50 nM.

For `O=C(COc1ccc(Cl)c(F)c1)NC12CC(NC(=O)c3cccc(OC(F)F)c3)(C1)C2` [Compound 764, N-{3-[2-(4-chloro-3-fluorophenoxy)acetamido]bicyclo[1.1.1]pentan-1-yl}-3-(difluoromethoxy)benzamide], the EC50 was above 2000 nM.

Take `O=C(COc1ccc(Cl)c(F)c1)NC12CCC(NC(=O)c3cccnn3)(CC1)C(O)C2` (stereo not drawn) [Compound 227, N-{4-[2-(4-chloro-3-fluorophenoxy)acetamido]-2-hydroxybicyclo[2.2.2]octan-1-yl}pyridazine-3-carboxamide]: the EC50 was 250 to 1000 nM.

Regarding `CCc1ccc(C(=O)NC23CC(NC(=O)COc4ccc(Cl)c(F)c4)(C2)C3)nc1` [Compound 145, N-{3-[2-(4-chloro-3-fluorophenoxy)acetamido]bicyclo[1.1.1]pentan-1-yl}-5-ethylpyridine-2-carboxamide], the EC50 lay in the range of 50 to 250 nM.

As for `O=C(COc1ccc(Cl)c(F)c1)NC12CC(NC(=O)c3cc(F)ccc3F)(C1)C2` [Compound 510, N-{3-[2-(4-chloro-3-fluorophenoxy)acetamido]bicyclo[1.1.1]pentan-1-yl}-2,5-difluorobenzamide], the EC50 was in the range of 250 to 1000 nM.

Consider `COCc1ccc(C(=O)NC23CC(NC(=O)COc4ccc(Cl)c(F)c4)(C2)C3)o1` [Compound 242, N-{3-[2-(4-chloro-3-fluorophenoxy)acetamido]bicyclo[1.1.1]pentan-1-yl}-5-(methoxymethyl)furan-2-carboxamide], for which the EC50 lay within 50 to 250 nM.

As to `Cn1cc(-c2cc(C(=O)NC34CC(NC(=O)COc5ccc(Cl)c(F)c5)(C3)C4)on2)cn1` [Compound 835, N-{3-[2-(4-chloro-3-fluorophenoxy)acetamido]bicyclo[1.1.1]pentan-1-yl}-3-(1-methyl-1H-pyrazol-4-yl)-1,2-oxazole-5-carboxamide], the EC50 lay in the range of 1000 to 2000 nM.

Take `CCN(CC)c1cccc(C(=O)NC23CC(NC(=O)COc4ccc(Cl)c(F)c4)(C2)C3)c1` [Compound 543, N-{3-[2-(4-chloro-3-fluorophenoxy)acetamido]bicyclo[1.1.1]pentan-1-yl}-3-(diethylamino)benzamide]: the EC50 was above 2000 nM.

`O=C(COc1ccc(Cl)c(F)c1)NC12CCC(NC(=O)c3cnc(C(F)F)cn3)(CC1)[C@H](O)C2` (single isomer, unassigned) [Compound 235]: the EC50 lay in the range of 50 to 250 nM.

With `Cc1ncoc1C(=O)NC12CC(NC(=O)COc3ccc(Cl)c(F)c3)(C1)C2` [Compound 869, N-{3-[2-(4-chloro-3-fluorophenoxy)acetamido]bicyclo[1.1.1]pentan-1-yl}-4-methyl-1,3-oxazole-5-carboxamide], the EC50 is above 2000 nM.

Turning to `Cc1cnc2c(C(=O)NC34CC(NC(=O)COc5ccc(Cl)c(F)c5)(C3)C4)cnn2c1` [Compound 806, N-{3-[2-(4-chloro-3-fluorophenoxy)acetamido]bicyclo[1.1.1]pentan-1-yl}-6-methylpyrazolo[1,5-a]pyrimidine-3-carboxamide], the EC50 is above 2000 nM.
